Entries after “also recorded” stand apart in the source; their conditions may differ.
Tests used:
C. albicans [1] = test: Planktonic MIC, CLSI guidelines; assay type: cell-based, Candida albicans
Method: (§1) Minimum inhibitory concentrations were determined using CLSI guidelines (Beattie & Krysan, 2021; Wiederhold, 2021). All yeasts were cultured overnight in 3 mL YPD at 30° C., then washed twice in sterile PBS. Two-fold serial dilutions of each compound were prepared in RMPI+MOPS pH 7 (Gibco RPMI 1640 with L-glutamine [11875-093] and 0.165M 352 MOPS), then 1×10^3 cells were added per well. Plates were incubated at 37° C. for 24 hours (C. albicans and S. cerevisiae) or 72 hours (C. neoformans). For A. fumigatus and F. oxysporum wells were inoculated with 1.25×10^4 conidia. Plates were incubated at 37° C. for 48 hours for A. fumigatus and 72 hours for F. oxysporum. All MICs are defined as the well with complete growth inhibition as determined by visual inspection with the exception of MICs of fluconazole against C. albicans where the MIC is defined as at least 50% reduction in growth compared to the control.

A. fumigatus [2] = test: Planktonic MIC, CLSI guidelines; assay type: cell-based; details: Aspergillus fumigatus
Method: as §1

C. albicans [3] = details: Yamashita et al., 2019; cited from earlier work
C. auris [4] = details: cited from earlier work
red blood cells = test: Red blood cell lysis assay; assay type: cell-based, sheep; details: 2 h, normalized to max lysis by triton-x
Method: Hemolysis assays were performed with defibrinated sheep's blood (Lampire, Cat #7239001). Blood was washed three times with PBS then resuspended to about 50% hematocrit in PBS. A two-fold dilution series of the compounds in 200 μL PBS with equal DMSO concentration across the series, then red blood cells were added with a final concentration of 2% hematocrit. Cells were incubated at RT for 2 hours in a v-bottom microtiter plate, then plates were spun down and supernatant was transferred to a flat bottom microtiter plate for absorbance measurement at 570 nm. Compounds were tested in technical triplicate in at least two independent assays performed on different days.

C. albicans [5] = test: Planktonic MIC, CLSI guidelines; assay type: cell-based, Candida albicans; details: data not shown
[6] = tested on: A. fumigatus CEA10 hyphae; test: Metabolic activity of hyphae/biofilms (resazurin); assay type: cell-based; details: Aspergillus fumigatus, CEA10HYPHAE, 24 h pre-incubation, 24 h exposure, read-out: hyphal metabolic activity IC50
Description: (§2) CLSI testing of antifungal activity of molds is based on inoculation with conidia and, therefore, measures inhibition of germination (Widerhold, 2021). For example, voriconazole is the gold standard for treatment of pulmonary infection and inhibits germination. The most important A. fumigatus infection that requires non-systemic therapy is fungal keratitis (Hoffman et al., 2022). At the time of clinical presentation, A. fumigatus is exclusively in the hyphal form. […] A. fumigatus CEA10 was incubated for 24 hours prior to exposure to a dilution series of compound B or C for an additional 24 hours. The metabolic activity of the cultures was determined using resazurin as previously described (Mao et al., 2020). […] To further characterize the mode of action of the KAPs against A. fumigatus hyphae, CEA10 was treated with compound B for 24 hours and then the cells were stained with propidium iodide, a dye that is excluded from cells with intact membranes (FIG. 2D).

C. albicans [7] = test: Checkerboard assay with clinical antifungals (FICI); assay type: cell-based, Candida albicans; details: for MIC: Candida albicans, read-out: MICA (MIC of each drug alone)
Method: (§3) To determine if compounds interacted with clinically used antifungal drugs, checkerboard assays were performed and fractional inhibitory concentration indices were determined. […] The FICI for compound B and fluconazole is 8.25 due to the 8-fold increase in fluconazole concentration in the combination; however, the concentration of compound B at FIC is reduced by 4-fold relative to compound B as a single agent (Table 3).

P. aeruginosa = test: Antibacterial MIC; assay type: cell-based, Pseudomonas aeruginosa
HepG2 cells = test: Mammalian cell culture toxicity assay (LDH release and XTT); assay type: cell-based, human
Method: HepG2 cells (ATCC, #) were maintained and cultured in HepG2 media (DMEM (Gibco, Cat #11965-092) with 5% FBS, 20 mM Glutamine, and Penicillin/Streptomycin) at 37° C. with 5% CO2. Cells were seeded in 96-well plates at a density of 1.25×10^4 cells/well and incubated overnight at 37° C. with 5% CO2, then media was removed and replaced with media containing a two-fold dilution series of compounds with equal DMSO concentrations across all wells including no compound controls. Cells were incubated for an additional 24 hours. Supernatant was removed and used to quantify lactate dehydrogenase release using the CyQuant LDH assay kit (Invitrogen, Cat #C20300) following the manufacturer's directions. LDH signal was normalized to a max lysis control. The remaining cells were then used to quantify cellular metabolism by XTT. Briefly, cells were washed, then 0.9 mg/mL XTT (Sigma, CAT #X4626)+320 μg/mL PMS ([…] methosulfate; Sigma, Cat #P9625) in HepG2 media was added to each well. Plates were incubated at 37° C., with 5% CO2 for 2 hours, then absorbance was measured at 490 nm.

C. auris [8] = test: Planktonic MIC, CLSI guidelines; assay type: cell-based, Candida auris; details: Candidozyma auris
Method: as §1

F. oxysporum = test: Planktonic MIC, CLSI guidelines; assay type: cell-based; details: Fusarium oxysporum; strain DUMC Fo
Method: as §1

C. neoformans = test: Planktonic MIC, CLSI guidelines; assay type: cell-based; details: Cryptococcus neoformans
Method: as §1

C. glabrata = test: Planktonic MIC, CLSI guidelines; assay type: cell-based; details: Nakaseomyces glabratus; strain KK2001
Method: as §1

S. aureus = test: Antibacterial MIC; assay type: cell-based; details: Staphylococcus aureus; strain Newman
A. fumigatus [9] = test: Checkerboard assay with clinical antifungals (FICI); assay type: cell-based, Aspergillus fumigatus; details: for MIC: Aspergillus fumigatus, read-out: MICA (MIC of each drug alone); for MIC / MICC (MIC in combination): checkerboard B x Voriconazole
Method: as §3

[10] = tested on: A. fumigatus CEA10 hyphal cells; test: Propidium iodide staining and DIC imaging of hyphae; assay type: cell-based, Aspergillus fumigatus; details: 16 μg/mL, 24 hours
Description: as §2

human cell lines = details: Kim et al., 2021; cited from earlier work
[11] = tested on: medically important yeasts and molds; test: Antifungal activity, general statements; assay type: cell-based
Method: as §1

[12] = Candida albicans, C. albicans SC5314, Table 4, read-out: C. albicans MIC
[13] = A. fumigatus CEA10, Table 4, read-out: A. fumigatus MIC
[14] = checkerboard B x Amphotericin B

For `Cc1cc[n+](CC(=O)c2ccc(-c3ccc(Oc4ccc(F)cc4)cc3)cc2)cc1.[Cl-]` [KAP-4], the MIC (C. albicans [1]; [12]) was 4 mg/L and the MIC (A. fumigatus [2]; [13]) was 16 mg/L.

In the case of `N=C(N)c1ccc(OCCCC2CCN(CCCOc3ccc(C(=N)N)cc3)CC2)cc1` [Compound T-2307], the “MIC on 2% glycerol compared to 2% dextrose” value (C. albicans [3]) is listed as “decreases dramatically”.

For `[H]/N=C(\N/C(=N/[H])NCCCCCCNC(=N)NC(=N)Nc1ccc(Cl)cc1)Nc1ccc(Cl)cc1` [2% chlorhexidine, chlorhexidine], the “reduction of fungal burden of colonized porcine skin” value (C. auris [4]; 72 hour experiment, three daily applications, Johnson et al., 2021) is given as “about 0.5 log10”.

With `Cc1cc[n+](CC(=O)c2ccc(-c3ccc(Oc4ccccc4)cc3)cc2)cc1.[Cl-]` [KAP-3] the MIC (C. albicans [1]; [12]) was 4 mg/L and the MIC (A. fumigatus [2]; [13]) was 8 mg/L.

With `Cc1cc[n+](CC(=O)c2ccc(-c3ccc(Oc4ccccc4)cc3)cc2)cc1.[Br-]` [Compound B] the “red blood cell lysis LD50” value (red blood cells) was 78.6 µg/mL, the “change in MIC with glycerol instead of glucose as carbon source” value (C. albicans [5]) was “not observed” and the IC50 [6] was 3.9 mg/L. For the same molecule, the MIC (C. albicans [1]; Candida albicans, strain SC5314, read-out: MIC) was 8 mg/L, the MIC (C. albicans [1]; Candida albicans, strain TWO #15, fluconazole-resistant, read-out: MIC) was 4 mg/L and the MIC (C. albicans [1]; strain TWO #17, fluconazole-resistant) was 4 mg/L. The FICI (C. albicans [7]; B with Amphotericin B) was 0.75, the FICI (C. albicans [7]; B with Fluconazole) was 8.25 and the MIC (C. albicans [7]; [14]) was 4 mg/L. For the same molecule, the MIC (C. albicans [7]; checkerboard B x Fluconazole) was 16 mg/L, the “MICC (MIC in combination)” value (C. albicans [7]; [14]) was 1 mg/L and the “MICC (MIC in combination)” value (C. albicans [7]; checkerboard B x Fluconazole) was 4 mg/L. For the same molecule, the “reduction of concentration at FIC relative to single agent” value (C. albicans [7]; combination with fluconazole) was 4 fold, the “interaction with clinical antifungal” value (C. albicans [7]; with amphotericin B) was “indifferent (2 < FICI < 4 = indifferent)” and the “interaction with clinical antifungal” value (C. albicans [7]; with caspofungin) was “indifferent (2 < FICI < 4 = indifferent)”. For the same molecule, the “interaction with clinical antifungal” value (C. albicans [7]; with fluconazole) was “antagonistic”, the “activity compared to cetylpyridinium chloride” value (P. aeruginosa; P. aeruginosa) was “more active” and the MIC (P. aeruginosa; Pseudomonas aeruginosa, strain PAO1) was 32 mg/L. The “LD50, cell lysis assay” value (HepG2 cells; HepG2, LDH release, 24 h) was 9 µg/mL, the “LD50, metabolic activity assay” value (HepG2 cells; HepG2, XTT, 24 h) was 20 µg/mL and the “LD50, toxicity against human cell lines” value (HepG2 cells; readout not given) was 20 µg/mL. For the same molecule, the MIC (C. auris [8]; strain 0381, drug susceptible) was 16 mg/L, the MIC (C. auris [8]; strain 0390, multi-drug resistant) was 4 mg/L and the MIC (A. fumigatus [2]; strain AF293, read-out: MIC) was 1 mg/L. For the same molecule, the MIC (A. fumigatus [2]; strain CEA10, read-out: MIC) was 8 mg/L, the MIC (A. fumigatus [2]; strain Cas^R, read-out: MIC) was 16 mg/L and the MIC (A. fumigatus [2]; strain SPF98, read-out: MIC) was 16 mg/L. For the same molecule, the MIC (F. oxysporum) was 16 mg/L, the MIC (C. neoformans; strain DUMC 118.00) was 2 mg/L and the MIC (C. neoformans; strain DUMC 122.01) was 4 mg/L. The MIC (C. neoformans; strain H99) was 2 mg/L, the MIC (C. glabrata) was 1 mg/L and the MIC (S. aureus) was 16 mg/L. The MIC (A. fumigatus [9]) was 16 mg/L, the FICI (A. fumigatus [9]; B with Voriconazole) was 0.625 and the “MICC (MIC in combination)” value (A. fumigatus [9]) was 2 mg/L. The “interaction with clinical antifungal” value (A. fumigatus [9]; with voriconazole) was “indifferent (2 < FICI < 4 = indifferent)”, the “DIC images of hyphae” value [10] was “loss of refractivity and fragmentation of hyphae” and the propidium iodide staining [10] was “uniform uptake of dye”.

Work on `Cc1ccc(-c2ccc(C(=O)C[n+]3ccc(N)cc3)cc2)c2ccccc12.[Cl-]` [KAP-2] yielded an MIC (C. albicans [1]; [12]) of 8 mg/L and an MIC (A. fumigatus [2]; [13]) of 16 mg/L.

With `OC(Cn1cncn1)(Cn1cncn1)c1ccc(F)cc1F` [Fluconazole, reference compound] the MIC (C. albicans [7]; checkerboard B x Fluconazole) was 0.125 mg/L, the “MICC (MIC in combination)” value (C. albicans [7]; checkerboard B x Fluconazole) was 1 mg/L and the “increase in fluconazole concentration in the combination” value (C. albicans [7]; combination with compound B) was 8 fold.

`Nc1cc[n+](CC(=O)c2ccc3c(c2)OC(c2cccc(C(F)(F)F)c2)(c2cccc(C(F)(F)F)c2)O3)cc1.[Cl-]` [KAP-1] showed an MIC (C. albicans [1]; [12]) of 1 mg/L and an MIC (A. fumigatus [2]; [13]) of 16 mg/L.

With `Nc1cc[n+](CC(=O)c2ccc(Oc3ccccc3)cc2)cc1.[Cl-]` [KAP-5] the MIC (A. fumigatus [2]; [13]) was over 64 mg/L.

With `C[C@@H]1[C@H](O)[C@@H](C)/C=C/C=C/C=C/C=C/C=C/C=C/C=C/[C@H](O[C@@H]2O[C@H](C)[C@@H](O)[C@H](N)[C@@H]2O)C[C@@H]2O[C@](O)(C[C@@H](O)C[C@@H](O)[C@H](O)CC[C@@H](O)C[C@@H](O)CC(=O)O[C@H]1C)C[C@H](O)[C@H]2C(=O)O` [Amphotericin B, reference compound] the “MICA (MIC of each drug alone)” value (C. albicans [7]; [14]) was 0.5 mg/L and the “MICC (MIC in combination)” value (C. albicans [7]; [14]) was 0.25 mg/L.

For `CCCCCCCCCCCCCCCC[n+]1ccccc1` [cetylpyridinium chloride], the “LD50, toxicity against human cell lines” value (human cell lines) is given as 6 µg/mL.

In the case of `N=C(NCCCCCCNC(=N)NC(=N)Nc1ccc(Cl)cc1)NC(=N)Nc1ccc(Cl)cc1.O=C(O)[C@H](O)[C@@H](O)[C@H](O)[C@H](O)CO.O=C(O)[C@H](O)[C@@H](O)[C@H](O)[C@H](O)CO` [chlorhexidine gluconate], the “activity against C. auris colonization of skin” value (C. auris [4]; comparison stated in Example 2) is given as “minimally active”.

For `COc1ccc(F)c(-c2ccc(C(=O)C[n+]3ccc(N)cc3)cc2)c1.[Br-]` [Compound C], the “red blood cell lysis LD50” value (red blood cells) was over 1000 µg/mL and the antifungal activity [11] was “inactive; also recorded: no antifungal activity”.

In the case of `C[C@@H](c1ncncc1F)[C@](O)(Cn1cncn1)c1ccc(F)cc1F` [Voriconazole, reference compound], the MIC (A. fumigatus [9]) is reported as 0.25 mg/L and the “MICC (MIC in combination)” value (A. fumigatus [9]) is reported as 0.125 mg/L.

Reference: patent US20260274828A1, “BROAD SPECTRUM ANTIFUNGAL KETO-ALKYL-PYRIDINIUM COMPOUNDS” (priority 2023, published 2026)
